The results in this text go back to ChEMBL document CHEMBL3991601, “The target landscape of clinical kinase drugs” (Science, 2017).

For assay [1], the target named is Tyrosine-protein kinase ABL2 (Homo sapiens, UniProt P42684).
The target of a further assay is Activin receptor type-2B (Homo sapiens, UniProt Q13705).
For another assay, the target named is T1, Ephrin type-B receptor 6 (Homo sapiens, UniProt O15197).
T1 sequence (O15197 whole entry): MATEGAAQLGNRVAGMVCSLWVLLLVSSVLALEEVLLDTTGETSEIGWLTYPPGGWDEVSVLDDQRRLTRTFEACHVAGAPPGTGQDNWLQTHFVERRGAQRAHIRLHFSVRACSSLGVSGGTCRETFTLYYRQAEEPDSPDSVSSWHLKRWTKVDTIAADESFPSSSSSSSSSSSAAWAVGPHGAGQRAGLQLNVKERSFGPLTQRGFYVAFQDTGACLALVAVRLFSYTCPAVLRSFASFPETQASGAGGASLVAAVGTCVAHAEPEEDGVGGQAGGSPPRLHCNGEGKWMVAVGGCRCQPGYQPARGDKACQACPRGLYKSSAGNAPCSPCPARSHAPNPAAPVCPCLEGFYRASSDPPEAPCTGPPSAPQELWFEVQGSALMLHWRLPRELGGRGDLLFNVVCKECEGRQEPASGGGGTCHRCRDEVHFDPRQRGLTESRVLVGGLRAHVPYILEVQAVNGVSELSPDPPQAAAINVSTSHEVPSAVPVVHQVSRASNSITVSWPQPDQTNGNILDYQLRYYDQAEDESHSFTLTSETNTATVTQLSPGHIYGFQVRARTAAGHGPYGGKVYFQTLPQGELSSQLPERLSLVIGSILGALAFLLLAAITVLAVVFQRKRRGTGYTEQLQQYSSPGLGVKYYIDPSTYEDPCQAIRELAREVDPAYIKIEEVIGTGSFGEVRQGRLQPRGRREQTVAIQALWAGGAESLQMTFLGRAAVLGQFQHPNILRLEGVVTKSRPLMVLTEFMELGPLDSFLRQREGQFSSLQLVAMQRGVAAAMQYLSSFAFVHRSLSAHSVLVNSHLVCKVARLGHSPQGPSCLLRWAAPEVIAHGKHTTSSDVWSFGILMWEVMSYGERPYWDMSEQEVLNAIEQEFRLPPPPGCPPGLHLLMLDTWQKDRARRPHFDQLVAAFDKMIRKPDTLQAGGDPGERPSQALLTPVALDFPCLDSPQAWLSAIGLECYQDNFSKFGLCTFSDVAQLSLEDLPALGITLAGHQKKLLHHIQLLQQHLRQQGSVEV

Assay [2] addresses T2, Phenylalanine--tRNA ligase beta subunit (Homo sapiens, UniProt Q9NSD9).
T2 sequence (Q9NSD9 whole entry): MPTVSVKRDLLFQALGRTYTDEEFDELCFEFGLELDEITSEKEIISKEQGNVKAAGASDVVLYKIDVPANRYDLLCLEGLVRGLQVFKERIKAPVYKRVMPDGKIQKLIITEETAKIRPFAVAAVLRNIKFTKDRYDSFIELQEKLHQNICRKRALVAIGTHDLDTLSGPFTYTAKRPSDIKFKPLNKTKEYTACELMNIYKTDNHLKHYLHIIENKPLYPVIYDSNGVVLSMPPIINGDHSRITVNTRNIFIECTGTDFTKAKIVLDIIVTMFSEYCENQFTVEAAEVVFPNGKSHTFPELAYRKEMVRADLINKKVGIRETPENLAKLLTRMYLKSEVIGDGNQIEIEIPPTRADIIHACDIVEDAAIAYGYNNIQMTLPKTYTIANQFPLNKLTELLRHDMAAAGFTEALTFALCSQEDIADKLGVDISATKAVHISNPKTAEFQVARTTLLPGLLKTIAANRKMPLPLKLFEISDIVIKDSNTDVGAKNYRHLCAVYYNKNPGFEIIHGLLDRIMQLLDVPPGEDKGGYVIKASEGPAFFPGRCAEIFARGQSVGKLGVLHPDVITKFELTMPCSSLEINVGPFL

For assay [3], the target named is GTP-binding nuclear protein Ran (Homo sapiens, UniProt P62826).
Assay [4] has as its target Ribosomal protein S6 kinase alpha-6 (Homo sapiens, UniProt Q9UK32).
Assay [5] addresses T3, Tyrosine-protein kinase Tec (Homo sapiens, UniProt P42680).
T3 sequence (P42680 whole entry): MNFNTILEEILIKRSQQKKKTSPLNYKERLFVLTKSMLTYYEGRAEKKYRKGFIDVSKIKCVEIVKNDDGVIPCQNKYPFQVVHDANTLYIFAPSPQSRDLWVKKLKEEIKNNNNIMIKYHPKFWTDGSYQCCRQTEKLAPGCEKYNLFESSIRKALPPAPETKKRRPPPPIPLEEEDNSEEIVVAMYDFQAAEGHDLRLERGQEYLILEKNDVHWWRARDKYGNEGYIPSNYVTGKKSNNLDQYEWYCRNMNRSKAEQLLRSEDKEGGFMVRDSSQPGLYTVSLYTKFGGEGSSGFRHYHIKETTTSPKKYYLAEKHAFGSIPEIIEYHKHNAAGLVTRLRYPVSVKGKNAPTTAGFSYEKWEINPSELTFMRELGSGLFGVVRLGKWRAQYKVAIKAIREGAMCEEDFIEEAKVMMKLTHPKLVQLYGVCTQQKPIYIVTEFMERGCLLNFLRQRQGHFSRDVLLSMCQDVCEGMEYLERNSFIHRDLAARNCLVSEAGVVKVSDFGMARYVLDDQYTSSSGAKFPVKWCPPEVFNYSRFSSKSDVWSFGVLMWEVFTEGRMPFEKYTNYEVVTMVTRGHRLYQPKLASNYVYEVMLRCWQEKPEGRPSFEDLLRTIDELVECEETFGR

Assay [6] has as its target T4, Uncharacterized protein FLJ45252 (Homo sapiens, UniProt Q6ZSR9).
T4 sequence (Q6ZSR9 whole entry): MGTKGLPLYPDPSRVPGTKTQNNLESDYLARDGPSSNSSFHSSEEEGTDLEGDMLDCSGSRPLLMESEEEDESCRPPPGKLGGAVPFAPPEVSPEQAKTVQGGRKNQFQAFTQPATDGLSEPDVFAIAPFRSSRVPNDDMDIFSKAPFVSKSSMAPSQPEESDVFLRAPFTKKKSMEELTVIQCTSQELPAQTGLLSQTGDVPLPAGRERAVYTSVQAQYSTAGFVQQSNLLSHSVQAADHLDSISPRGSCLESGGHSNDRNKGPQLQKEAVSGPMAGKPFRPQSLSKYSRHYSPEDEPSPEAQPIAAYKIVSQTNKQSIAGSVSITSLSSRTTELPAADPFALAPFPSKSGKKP
The following applies: read-out: Kd apparent; k-562, colo 205, sk-n-be(2) and mv-4-11.

The source made the active and inactive calls. Cut-off read from the data, not from the text of the source, for most assays here: actives have a measured Kd and inactives only a lower limit.
Note: in the data inactive means no Kd found up to 30 µM.

Sequence of Ribosomal protein S6 kinase alpha-6 (Q9UK32 whole entry): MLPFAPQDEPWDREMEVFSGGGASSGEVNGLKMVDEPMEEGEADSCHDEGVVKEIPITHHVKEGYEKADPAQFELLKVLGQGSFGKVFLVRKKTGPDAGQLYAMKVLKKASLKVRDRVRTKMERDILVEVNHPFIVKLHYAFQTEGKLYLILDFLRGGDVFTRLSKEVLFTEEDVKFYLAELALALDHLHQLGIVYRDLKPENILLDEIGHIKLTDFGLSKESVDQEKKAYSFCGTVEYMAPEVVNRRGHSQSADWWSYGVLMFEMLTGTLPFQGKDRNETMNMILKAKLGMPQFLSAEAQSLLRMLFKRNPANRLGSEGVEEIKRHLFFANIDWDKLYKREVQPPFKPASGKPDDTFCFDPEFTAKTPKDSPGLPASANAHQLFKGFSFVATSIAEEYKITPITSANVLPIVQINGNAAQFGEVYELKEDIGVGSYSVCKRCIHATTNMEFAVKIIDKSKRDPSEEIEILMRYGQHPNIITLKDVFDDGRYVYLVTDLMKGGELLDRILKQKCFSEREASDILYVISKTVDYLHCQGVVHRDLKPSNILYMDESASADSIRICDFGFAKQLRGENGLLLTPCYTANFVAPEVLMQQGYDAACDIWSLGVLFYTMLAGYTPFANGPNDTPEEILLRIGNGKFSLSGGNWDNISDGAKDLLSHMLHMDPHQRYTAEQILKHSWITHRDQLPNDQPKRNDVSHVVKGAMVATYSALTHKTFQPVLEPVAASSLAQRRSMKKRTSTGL
Sequence of Activin receptor type-2B (Q13705 whole entry): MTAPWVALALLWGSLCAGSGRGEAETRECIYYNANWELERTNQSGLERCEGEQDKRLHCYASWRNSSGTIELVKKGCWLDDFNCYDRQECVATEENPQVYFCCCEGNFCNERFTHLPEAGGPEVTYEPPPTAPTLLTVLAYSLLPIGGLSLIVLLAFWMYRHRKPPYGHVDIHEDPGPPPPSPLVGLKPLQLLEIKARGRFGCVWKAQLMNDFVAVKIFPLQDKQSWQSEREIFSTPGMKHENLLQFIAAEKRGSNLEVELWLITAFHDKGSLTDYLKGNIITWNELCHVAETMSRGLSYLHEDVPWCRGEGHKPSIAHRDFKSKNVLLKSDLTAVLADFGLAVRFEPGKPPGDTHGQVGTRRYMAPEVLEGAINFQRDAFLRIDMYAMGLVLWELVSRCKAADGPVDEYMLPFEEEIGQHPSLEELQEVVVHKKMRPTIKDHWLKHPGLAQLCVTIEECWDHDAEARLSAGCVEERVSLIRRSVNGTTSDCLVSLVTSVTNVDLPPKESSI
Sequence of Tyrosine-protein kinase ABL2 (P42684 whole entry): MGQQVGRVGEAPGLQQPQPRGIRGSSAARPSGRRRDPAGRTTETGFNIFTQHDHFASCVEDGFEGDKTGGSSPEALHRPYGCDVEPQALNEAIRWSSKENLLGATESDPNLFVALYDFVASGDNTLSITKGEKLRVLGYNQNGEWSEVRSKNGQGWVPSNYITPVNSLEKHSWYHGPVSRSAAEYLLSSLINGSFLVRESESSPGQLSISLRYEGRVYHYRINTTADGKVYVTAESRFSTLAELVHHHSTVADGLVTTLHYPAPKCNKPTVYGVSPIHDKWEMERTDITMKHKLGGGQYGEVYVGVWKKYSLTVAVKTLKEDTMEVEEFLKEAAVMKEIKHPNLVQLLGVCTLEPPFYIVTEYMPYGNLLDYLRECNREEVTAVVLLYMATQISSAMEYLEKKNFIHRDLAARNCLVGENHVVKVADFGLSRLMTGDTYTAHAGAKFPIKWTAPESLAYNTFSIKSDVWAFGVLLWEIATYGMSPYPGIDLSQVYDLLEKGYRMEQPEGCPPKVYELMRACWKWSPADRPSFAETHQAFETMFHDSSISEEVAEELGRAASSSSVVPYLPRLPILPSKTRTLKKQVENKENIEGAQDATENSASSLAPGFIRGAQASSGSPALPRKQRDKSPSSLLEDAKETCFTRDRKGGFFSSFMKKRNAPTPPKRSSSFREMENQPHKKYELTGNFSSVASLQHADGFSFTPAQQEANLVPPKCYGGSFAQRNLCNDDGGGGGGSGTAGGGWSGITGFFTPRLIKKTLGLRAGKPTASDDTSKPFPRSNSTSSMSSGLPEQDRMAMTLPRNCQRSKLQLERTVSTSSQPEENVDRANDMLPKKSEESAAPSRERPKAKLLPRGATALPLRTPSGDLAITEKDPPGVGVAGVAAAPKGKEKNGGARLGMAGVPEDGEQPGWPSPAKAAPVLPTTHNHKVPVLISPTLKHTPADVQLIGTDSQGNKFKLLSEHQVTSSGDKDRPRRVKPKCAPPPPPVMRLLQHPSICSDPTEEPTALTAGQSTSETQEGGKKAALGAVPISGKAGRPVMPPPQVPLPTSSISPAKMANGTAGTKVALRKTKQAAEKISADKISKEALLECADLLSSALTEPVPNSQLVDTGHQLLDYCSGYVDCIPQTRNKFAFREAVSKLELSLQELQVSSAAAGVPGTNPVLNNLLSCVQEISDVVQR

Turning to `Cc1c(Cn2c(C)nc3c(C(=O)O)cc(N4CCOCC4)cc32)cccc1C(F)(F)F` [GSK-2636771], the Kd (in assay [1]; at Activin receptor type-2B; on Ephrin type-B receptor 6; in assay [2]; in assay [3]; in assay [4]) was > 30 µM (inactive) each time. Further, the Kd in assay [5] and in assay [6] was > 30 µM (inactive) each time.
`Cc1cc(Nc2nc(N[C@@H](C)c3ncc(F)cn3)ncc2Cl)n[nH]1` [AZD-1480]: the Kd (in assay [1]; at Activin receptor type-2B; on Ephrin type-B receptor 6; in assay [2]; in assay [3]; in assay [4]) was > 30 µM (inactive) each time. In addition, the Kd in assay [5] and in assay [6] was > 30 µM (inactive) in each case.
In the case of `Cc1ccc(C(=O)Nc2ccc(Oc3cc4cnn(C)c4cc3-c3cn[nH]c3)c(F)c2)c(=O)n1-c1ccc(F)cc1` [MERESTINIB], the Kd (in assay [1]; on Activin receptor type-2B; at Ephrin type-B receptor 6; in assay [2]; in assay [3]; in assay [4]) was > 30 µM (inactive) in each case. Moreover, the Kd in assay [5] and in assay [6] was > 30 µM (inactive) each time.
As for `C[C@]1(O)C[C@@H](c2nc(-c3ccc4ccc(-c5ccccc5)nc4c3)c3c(N)nccn32)C1` [LINSITINIB], the Kd (in assay [1]; at Activin receptor type-2B; on Ephrin type-B receptor 6; in assay [2]; in assay [3]; in assay [4]) was > 30 µM (inactive) throughout. The Kd in assay [5] and in assay [6] was > 30 µM (inactive) in each case.
As to `CNC(=O)c1cc(COc2nnc(Nc3ccc(Cl)cc3)c3ccoc23)ccn1` [TELATINIB], the Kd (in assay [1]; on Activin receptor type-2B; on Ephrin type-B receptor 6; in assay [2]; in assay [3]; in assay [4]) was > 30 µM (inactive) in each case. The Kd in assay [5] and in assay [6] was > 30 µM (inactive) throughout.
With `CNC(=O)c1cccc(-c2ccc3c(N4CCOC[C@@H]4C)nc(N4CCOC[C@@H]4C)nc3n2)c1` [VISTUSERTIB], the Kd (in assay [1]; on Activin receptor type-2B; on Ephrin type-B receptor 6; in assay [2]; in assay [3]; in assay [4]) was > 30 µM (inactive) throughout. Further, the Kd in assay [5] and in assay [6] was > 30 µM (inactive) in each case.
Take `O=C(NC[C@H](O)CO)c1ccncc1Nc1ccc(I)cc1F` [PIMASERTIB]: the Kd (in assay [1]; on Activin receptor type-2B; on Ephrin type-B receptor 6; in assay [2]; in assay [3]; in assay [4]) was > 30 µM (inactive) each time. For the same compound, the Kd in assay [5] and in assay [6] was > 30 µM (inactive) each time.
Consider `CC(C)CC(=O)Nc1[nH]nc2c1CN(C(=O)C1CCN(C)CC1)C2(C)C` [PHA-793887], for which the Kd in assay [1] is > 30 µM (inactive); at Activin receptor type-2B, > 30 µM (inactive); at Ephrin type-B receptor 6 it was > 30 µM (inactive); in assay [2], 0.003 µM; in assay [3] it was > 30 µM (inactive); in assay [4] it was > 30 µM (inactive). Also, the Kd in assay [5] and in assay [6] was > 30 µM (inactive) each time.
With `O=C(NOC[C@H](O)CO)c1ccc(F)c(F)c1Nc1ccc(I)cc1F` [MIRDAMETINIB], the Kd (in assay [1]; at Activin receptor type-2B; at Ephrin type-B receptor 6; in assay [2]; in assay [3]; in assay [4]) was > 30 µM (inactive) in each case. Also, the Kd in assay [5] and in assay [6] was > 30 µM (inactive) throughout.
For `CC1(COc2ccc3c(c2)ncn3-c2ccc3cccc(N4CCC(N)CC4)c3n2)COC1` [CRENOLANIB], the Kd in assay [1] is > 30 µM (inactive); on Activin receptor type-2B, > 30 µM (inactive); on Ephrin type-B receptor 6, > 30 µM (inactive); in assay [2], > 30 µM (inactive); in assay [3], > 30 µM (inactive); in assay [4] it was 1.98 µM (active). In addition, the Kd in assay [5] and in assay [6] was > 30 µM (inactive) each time.
As to `COc1ccc2c(OCc3nnc4ccc(-c5ccccc5)nn34)ccnc2c1` [AMG-208], the Kd (in assay [1]; on Activin receptor type-2B; on Ephrin type-B receptor 6; in assay [2]; in assay [3]; in assay [4]) was > 30 µM (inactive) each time. Moreover, the Kd in assay [5] and in assay [6] was > 30 µM (inactive) each time.
`COc1ccc(-c2ccc3ncc4c(c3c2)n(-c2ccc(N3CCNCC3)c(C(F)(F)F)c2)c(=O)n4C)cn1` [BGT-226 FREE BASE]: the Kd (in assay [1]; at Activin receptor type-2B; on Ephrin type-B receptor 6; in assay [2]; in assay [3]; in assay [4]) was > 30 µM (inactive) in each case. The Kd in assay [5] and in assay [6] was > 30 µM (inactive) in each case.
